Results: PMC7883289, “Synthesis of Paeonol-Ozagrel Conjugate: Structure Characterization and In Vivo Anti-Ischemic Stroke potential” (Frontiers in Pharmacology, 2021)

Columns and labels:
[1] = system: middle cerebral artery occlusion (MCAO) rats; assay: Evaluation of neurological deficit (Longa score) in MCAO rats; type: in vivo; conditions: 24 h after reperfusion, single iv dose 2 h after reperfusion: paeonol and OS 3 mg/kg, POC 4.5 mg/kg, n = 6
Procedure: Male Sprague Dawley (SD) rats weighing among 220 g-230 g (Anhui Medicine University, Hefei, China; certificate number: SCXK20190,003) were housed under ad libitum access to food and water with a standardized light-dark cycle condition (25 ± 2°C, 12-hour light/dark cycle). All the experimental protocols were performed in accordance with the Institutional Animal Care and Use Committee of Anhui University of Chinese Medicine (Animal ethics number: AHUCM-rats-2019001). We used the minimal number of study animals (n = 6 rats in each group for different experiments). The rats were fastened upon the operating table in a supine position after being anesthetized with 2% pelltobarbitalum natricum (50 mg/kg). After disinfection of the skin within close proximity of the operative region, the right common carotid artery (CCA), external carotid artery (ECA) and internal carotid artery (ICA) were exposed with blunt dissection. The CCA was temporarily ligated and the ECA were permanently ligated ([Liu et al., 2016]). A nylon monofilament surgical thread was introduced into the ICA to block the MCA when the blunted distal end met resistance. After 2 h of occlusion, reperfusion was accomplished to restore blood supply to the MCA area by removing the filament ([Li et al., 2009]; [Zhai et al., 2017]). […] Rats were split randomly into five groups, including the sham, model, paeonol, OS and POC group. […] Neurological deficit was evaluated 24 h after reperfusion (blinded to experimenters). […] The rating score was assessed by the following standard: no neurological deficit, 0; failure to extend left forepaw fully, one; spontaneous circling to the left, two; falling to the left, three; inability to walk spontaneously and coma of consciousness, 4. […] Neurological scores for each group were calculated using six rats according to a sample size calculation (α err prob = 0.05, 1-β err prob = 0.95) and references ([Katayama et al., 2017]; [[…] al., 2019]; [Zheng et al., 2019]).

[2] = system: middle cerebral artery occlusion (MCAO) rats; assay: Measurement of infarct volume by TTC staining in MCAO rats; type: in vivo; conditions: 24 h after reperfusion, single iv dose: paeonol and OS 3 mg/kg, POC 4.5 mg/kg, n = 6
Procedure: Male Sprague Dawley (SD) rats weighing among 220 g-230 g (Anhui Medicine University, Hefei, China; certificate number: SCXK20190,003) were housed under ad libitum access to food and water with a standardized light-dark cycle condition (25 ± 2°C, 12-hour light/dark cycle). All the experimental protocols were performed in accordance with the Institutional Animal Care and Use Committee of Anhui University of Chinese Medicine (Animal ethics number: AHUCM-rats-2019001). We used the minimal number of study animals (n = 6 rats in each group for different experiments). The rats were fastened upon the operating table in a supine position after being anesthetized with 2% pelltobarbitalum natricum (50 mg/kg). After disinfection of the skin within close proximity of the operative region, the right common carotid artery (CCA), external carotid artery (ECA) and internal carotid artery (ICA) were exposed with blunt dissection. The CCA was temporarily ligated and the ECA were permanently ligated ([Liu et al., 2016]). A nylon monofilament surgical thread was introduced into the ICA to block the MCA when the blunted distal end met resistance. After 2 h of occlusion, reperfusion was accomplished to restore blood supply to the MCA area by removing the filament ([Li et al., 2009]; [Zhai et al., 2017]). […] Rats were split randomly into five groups, including the sham, model, paeonol, OS and POC group. After 2 h of reperfusion, the paeonol and OS groups received the drug by intravenous injection at a single dose of 3 mg/kg ([Imamura et al., 2003]; [Park et al., 2010]; [Gai et al., 2019]), which the doses of paeonol and OS uesd previously were benificial in rats and the dose of OS is within the clinical dose range. […] Cerebral infarction volume was determined using TTC staining. […] The infarction and total brain volume were quantified using ImageJ software. The infarct volume was calculated as a ratio of the infarcted tissue relative to the total area of the whole-brain coronal section ([Ye and Gao, 2008]; [Katayama et al., 2017]). […]

Row | Compound | neurological deficits score (Longa, 0-4) [1] | cerebral infarction volume percentage [2]
1 | O=C([O-])/C=C/c1ccc(Cn2ccnc2)cc1.[Na+] [OS, Ozagrel sodium] | 2.00 ± 0.63 | 18.68% ± 1.35
2 | COc1ccc(C(C)=O)c(O)c1 [paeonol] | 2.50 ± 0.55 | 20.87% ± 1.43
